{"source": "patent US12077503B2", "about": "“Substituted cyclic amides and their use as herbicides” (FMC CORPORATION, priority 2015, dated 2024)", "type_in_all_cases": "in vivo", "key": {"[1]": {"system": "velvetleaf (Abutilon theophrasti)", "experiment": "Test G Post-Emergence Protocol", "settings": "Abutilon theophrasti, post-emergence, 312 h, read-out: Velvetleaf damage rating", "description": "(§1) Seeds of corn (Zea mays), giant foxtail (Setaria faberi), barnyardgrass (Echinochloa crus-galli), ivy-leaved morning glory (Ipomoea hederacea), redroot pigweed (Amaranthus retroflexus) and velvetleaf (Abutilon theophrasti) were sown in standard soil in pots. After cultivation for 8 days under controlled conditions in a glasshouse (at 24/16° C., day/night; 14 hours light; 65% humidity), the plants were sprayed with an aqueous spray solution derived from the formulation of the technical active ingredient in acetone/water (50:50) solution containing 0.5% Tween 20 (polyoxyethylene sorbitan monolaurate, CAS RN 9005-64-5) to give a final dose of 15.625, 62.5 or 250 g/ha of test compound.\n(§2) The test plants were then grown on under controlled conditions in a glasshouse (at 24/16° C., day/night; 14 hours light; 65% humidity) and watered twice daily. After 13 days the test was evaluated (100=total damage to plant; 0=no damage to plant). A dash (-) means no test result."}, "corn (Zea mays) [2]": {"system": "corn (Zea mays)", "experiment": "Test G Post-Emergence Protocol", "settings": "Zea mays, post-emergence, 312 h, read-out: Corn damage rating", "description": "as §1, §2"}, "[3]": {"system": "giant foxtail (Setaria faberi)", "experiment": "Test G Post-Emergence Protocol", "settings": "Setaria faberi, post-emergence, 312 h, read-out: Foxtail, Giant damage rating", "description": "as §1, §2"}, "[4]": {"system": "barnyardgrass (Echinochloa crus-galli)", "experiment": "Test G Post-Emergence Protocol", "settings": "Echinochloa crus-galli, post-emergence, 312 h, read-out: Barnyardgrass damage rating", "description": "as §1, §2"}, "[5]": {"system": "ivy-leaved morning glory (Ipomoea hederacea)", "experiment": "Test G Post-Emergence Protocol", "settings": "Ipomoea, post-emergence, 312 h, read-out: Morningglory, Ivy-leaved damage rating", "description": "as §1, §2"}, "[6]": {"system": "redroot pigweed (Amaranthus retroflexus)", "experiment": "Test G Post-Emergence Protocol", "settings": "Amaranthus retroflexus, post-emergence, 312 h, read-out: Pigweed, Redroot damage rating", "description": "as §1, §2"}, "[7]": {"system": "velvetleaf (Abutilon theophrasti)", "experiment": "Test G Pre-Emergence Protocol", "settings": "Abutilon theophrasti, pre-emergence, 312 h, evaluated after 13 days", "description": "as §1, with “one day” for “8 days”\nas §2"}, "corn (Zea mays) [8]": {"system": "corn (Zea mays)", "experiment": "Test G Pre-Emergence Protocol", "settings": "Zea mays, pre-emergence, 312 h, evaluated after 13 days", "description": "as §1, with “one day” for “8 days”\nas §2"}, "[9]": {"system": "giant foxtail (Setaria faberi)", "experiment": "Test G Pre-Emergence Protocol", "settings": "Setaria faberi, pre-emergence, 312 h, evaluated after 13 days", "description": "as §1, with “one day” for “8 days”\nas §2"}, "[10]": {"system": "barnyardgrass (Echinochloa crus-galli)", "experiment": "Test G Pre-Emergence Protocol", "settings": "Echinochloa crus-galli, pre-emergence, 312 h, evaluated after 13 days", "description": "as §1, with “one day” for “8 days”\nas §2"}, "[11]": {"system": "ivy-leaved morning glory (Ipomoea hederacea)", "experiment": "Test G Pre-Emergence Protocol", "settings": "Ipomoea, pre-emergence, 312 h, evaluated after 13 days", "description": "as §1, with “one day” for “8 days”\nas §2"}, "[12]": {"system": "redroot pigweed (Amaranthus retroflexus)", "experiment": "Test G Pre-Emergence Protocol", "settings": "Amaranthus retroflexus, pre-emergence, 312 h, evaluated after 13 days", "description": "as §1, with “one day” for “8 days”\nas §2"}, "[13]": {"settings": "15.625 g ai/ha, evaluated after 13 days (100=total damage to plant; 0=no damage to plant)"}, "[14]": {"settings": "62.5 g ai/ha, evaluated after 13 days, 100=total damage to plant, 0=no damage to plant"}, "[15]": {"settings": "250 g ai/ha, evaluated after 13 days, 100=total damage to plant, 0=no damage to plant"}}, "data": [{"smiles": "CN1C[C@@H](c2ccc(C(F)(F)F)cc2)[C@H](C(=O)Nc2ccnc(Cl)c2F)C1=O", "note": "(racemic) [Compound 1656]", "values": [{"measurement": "pest or weed control at 15.625 g/ha", "setting": "[1]; [13]", "result": 0, "unit": "%"}, {"measurement": "pest or weed control at 62.5 g/ha", "setting": "[1]; [14]", "result": 0, "unit": "%"}, {"measurement": "pest or weed control at 250 g/ha", "setting": "[1]; [15]", "result": 20, "unit": "%"}, {"measurement": "plant injury at 15.625 g/ha", "setting": "corn (Zea mays) [2]; [13]", "result": 0, "unit": "%"}, {"measurement": "plant injury at 62.5 g/ha", "setting": "corn (Zea mays) [2]; [14]", "result": 0, "unit": "%"}, {"measurement": "plant injury at 250 g/ha", "setting": "corn (Zea mays) [2]; [15]", "result": 0, "unit": "%"}, {"measurement": "pest or weed control at 15.625 g/ha", "setting": "[3]; [13]", "result": 20, "unit": "%"}, {"measurement": "pest or weed control at 62.5 g/ha", "setting": "[3]; [14]", "result": 30, "unit": "%"}, {"measurement": "pest or weed control at 250 g/ha", "setting": "[3]; [15]", "result": 80, "unit": "%"}, {"measurement": "pest or weed control at 15.625 g/ha", "setting": "[4]; [13]", "result": 10, "unit": "%"}, {"measurement": "pest or weed control at 62.5 g/ha", "setting": "[4]; [14]", "result": 10, "unit": "%"}, {"measurement": "pest or weed control at 250 g/ha", "setting": "[4]; [15]", "result": 30, "unit": "%"}, {"measurement": "pest or weed control at 15.625 g/ha", "setting": "[5]; [13]", "result": 0, "unit": "%"}, {"measurement": "pest or weed control at 62.5 g/ha", "setting": "[5]; [14]", "result": 0, "unit": "%"}, {"measurement": "pest or weed control at 250 g/ha", "setting": "[5]; [15]", "result": 0, "unit": "%"}, {"measurement": "pest or weed control at 15.625 g/ha", "setting": "[6]; [13]", "result": 0, "unit": "%"}, {"measurement": "pest or weed control at 62.5 g/ha", "setting": "[6]; [14]", "result": 20, "unit": "%"}, {"measurement": "pest or weed control at 250 g/ha", "setting": "[6]; [15]", "result": 30, "unit": "%"}, {"measurement": "pest or weed control at 15.625 g/ha", "setting": "[7]; 15.625 g ai/ha, read-out: Velvetleaf damage rating (100=total damage to plant; 0=no damage to plant)", "result": 0, "unit": "%"}, {"measurement": "pest or weed control at 62.5 g/ha", "setting": "[7]; 62.5 g ai/ha, 100=total damage to plant, 0=no damage to plant, read-out: Velvetleaf damage rating", "result": 0, "unit": "%"}, {"measurement": "pest or weed control at 250 g/ha", "setting": "[7]; 250 g ai/ha, read-out: Velvetleaf damage rating (100=total damage to plant; 0=no damage to plant)", "result": 0, "unit": "%"}, {"measurement": "plant injury at 15.625 g/ha", "setting": "corn (Zea mays) [8]; 15.625 g ai/ha, read-out: Corn damage rating (100=total damage to plant; 0=no damage to plant)", "result": 0, "unit": "%"}, {"measurement": "plant injury at 62.5 g/ha", "setting": "corn (Zea mays) [8]; 62.5 g ai/ha, 100=total damage to plant, 0=no damage to plant, read-out: Corn damage rating", "result": 0, "unit": "%"}, {"measurement": "plant injury at 250 g/ha", "setting": "corn (Zea mays) [8]; 250 g ai/ha, read-out: Corn damage rating (100=total damage to plant; 0=no damage to plant)", "result": 0, "unit": "%"}, {"measurement": "pest or weed control at 15.625 g/ha", "setting": "[9]; 15.625 g ai/ha, read-out: Foxtail, Giant damage rating (100=total damage to plant; 0=no damage to plant)", "result": 0, "unit": "%"}, {"measurement": "pest or weed control at 62.5 g/ha", "setting": "[9]; 62.5 g ai/ha, 100=total damage to plant, 0=no damage to plant, read-out: Foxtail, Giant damage rating", "result": 0, "unit": "%"}, {"measurement": "pest or weed control at 250 g/ha", "setting": "[9]; 250 g ai/ha, read-out: Foxtail, Giant damage rating (100=total damage to plant; 0=no damage to plant)", "result": 80, "unit": "%"}, {"measurement": "pest or weed control at 15.625 g/ha", "setting": "[10]; 15.625 g ai/ha, read-out: Barnyardgrass damage rating (100=total damage to plant; 0=no damage to plant)", "result": 0, "unit": "%"}, {"measurement": "pest or weed control at 62.5 g/ha", "setting": "[10]; 62.5 g ai/ha, 100=total damage to plant, 0=no damage to plant, read-out: Barnyardgrass damage rating", "result": 0, "unit": "%"}, {"measurement": "pest or weed control at 250 g/ha", "setting": "[10]; 250 g ai/ha, read-out: Barnyardgrass damage rating (100=total damage to plant; 0=no damage to plant)", "result": 20, "unit": "%"}, {"measurement": "pest or weed control at 15.625 g/ha", "setting": "[11]; 15.625 g ai/ha, read-out: Morningglory, Ivy-leaved damage rating (100=total damage to plant; 0=no damage to plant)", "result": 0, "unit": "%"}, {"measurement": "pest or weed control at 62.5 g/ha", "setting": "[11]; 62.5 g ai/ha, 100=total damage to plant, 0=no damage to plant, read-out: Morningglory, Ivy-leaved damage rating", "result": 20, "unit": "%"}, {"measurement": "pest or weed control at 250 g/ha", "setting": "[11]; 250 g ai/ha, read-out: Morningglory, Ivy-leaved damage rating (100=total damage to plant; 0=no damage to plant)", "result": 0, "unit": "%"}, {"measurement": "pest or weed control at 15.625 g/ha", "setting": "[12]; 15.625 g ai/ha, read-out: Pigweed, Redroot damage rating (100=total damage to plant; 0=no damage to plant)", "result": 0, "unit": "%"}, {"measurement": "pest or weed control at 62.5 g/ha", "setting": "[12]; 62.5 g ai/ha, 100=total damage to plant, 0=no damage to plant, read-out: Pigweed, Redroot damage rating", "result": 0, "unit": "%"}, {"measurement": "pest or weed control at 250 g/ha", "setting": "[12]; 250 g ai/ha, read-out: Pigweed, Redroot damage rating (100=total damage to plant; 0=no damage to plant)", "result": 0, "unit": "%"}]}]}
